Source: US7291627B2, “Dihydroimidazo[5.1-a]-beta-carboline derivatives, method for their preparation, and their application as a drug” (MACEF, priority 2001, dated 2007)

System: JA 657 chicks
Assay: Chick sleep/sedation test (IM injection, 90 minute observation)
Assay type: in vivo
Details: for Sed (sedation time as % of the period) / TA (time to torpor between injection and first stage of sleep) / TS (duration of the first sleep) / Tsed (total sedation time over the period): 90 min observation; for TS (mins) Placebo diff'ce: extension of first sleep compared with test controls
Procedure: The dihydroimidazo[5,1-a]-β-carboline derivatives of the invention, in particular those in the form of the methyl sulfonate, (soluble), were tested in chicks, and certain compounds that were active in the chick were administered in single doses to six Beagle dogs of both sexes for a polysomnographic study of at least 4 hours duration.
JA 657 chicks from Couvoir Gauguet, 44 Le Pin, were accustomed for at least 6 days to an alternating program of light and darkness with 12 hours of daylight and 12 hours of darkness at a regulated temperature of 25±2° C. They were fed ad libitum and were placed under test compounds in a vivarium in groups of 3 individuals with a mean weight of 100±10 g on the day of the test. At that age in this species, there is no effective meningeal (hemato-encephalic) barrier. The test products were injected in 3 doses (1, 3 and 10 mg/kg) intramuscularly (IM) in solution or in an aqueous suspension (1 drop of Tween 80 per ml), each to two batches of 3 chicks which were observed over 90 minutes. For each test series (18 vivaria), there was at least one batch of negative control chicks receiving the same volume (0.2 ml IM) of water for injectable preparations.
During the 90 minute observation period, the chicks were strongly stimulated every 15 minutes by presenting a full feeding trough, and each 5 minute period was given a grade from among the following 5 states, corresponding to the state of alertness over that period:
Mobile, sitting alert, drowsy, asleep, sleep-like state. The parameters studied were the time to torpor (TA) passed between injection and the first stage of sleep, the duration of the first sleep (TS) and the total sedation time over the period (Tsed), expressed in minutes and as a % of the period (Sed).
To compare the results of tests carried out at different dates, the extension of the duration of the first sleep TS compared with the test controls was recorded.

Row | Compound | Sed (sedation time as % of the period) (Dose: 1 mg/kg) | TA (time to torpor between injection and first stage of sleep) (Dose: 1 mg/kg) | TS (duration of the first sleep) (Dose: 1 mg/kg) | Tsed (total sedation time over the period) (Dose: 1 mg/kg) | TS (mins) Placebo diff'ce (Dose: 1 mg/kg) | Sed (sedation time as % of the period) (Dose: 3 mg/kg) | TA (time to torpor between injection and first stage of sleep) (Dose: 3 mg/kg) | TS (duration of the first sleep) (Dose: 3 mg/kg) | Tsed (total sedation time over the period) (Dose: 3 mg/kg) | TS (mins) Placebo diff'ce (Dose: 3 mg/kg) | Sed (sedation time as % of the period) (Dose: 10 mg/kg) | TA (time to torpor between injection and first stage of sleep) (Dose: 10 mg/kg) | TS (duration of the first sleep) (Dose: 10 mg/kg) | Tsed (total sedation time over the period) (Dose: 10 mg/kg) | TS (mins) Placebo diff'ce (Dose: 10 mg/kg)
1 | CCCc1ncc2n1CCc1c-2[nH]c2ccc(OC)cc12 [Example 7, 8-methoxy-3-propyl-5,6-dihydroimidazo[5,1-a]-β-carboline] | 41.4% | 16.5 min | 16 min | 46 min | 16 min | 41% | 16.5 min | 27 min | 45.5 min | 27 min | 48.2% | 12.5 min | 38.5 min | 53.5 min | 38.5 min
2 | CCCc1ncc2n1CCc1c-2n(C)c2ccc(OC)cc12.CS(=O)(=O)O [Example 8, 8-methoxy-11-methyl-3-propyl-5,6-dihydro-imidazo[5,1-a]-β-carboline methane sulfonate] | 42.2% | 16 min | 21.5 min | 38 min | 21 min | 60% | 8.5 min | 33 min | 54 min | 32.7 min | 76.1% | 5.5 min | 41 min | 68.5 min | 40.7 min
3 | COc1ccc2c(c1)c1c(n2C)-c2cnc(C)n2CC1.CS(=O)(=O)O [Example 9, 8-methoxy-3,11-dimethyl-5,6-dihydroimidazo-[5,1-a]-β-carboline methane sulfonate] | 27.2% | 22 min | 3 min | 24.5 min | 2.8 min | 29.4% | 17.5 min | 13.5 min | 26.5 min | 13 min | 42.8% | 16.5 min | 15.5 min | 38.5 min | 15 min
4 | CS(=O)(=O)O.Cc1ncc2n1CCc1c-2n(C)c2ccc(O)cc12 [Example 10, 8-hydroxy-3,11-dimethyl-5,6-dihydroimidazo-[5,1-a]-β-carboline methane sulfonate] | 42.2% | 15 min | 5 min | 38 min | 4.7 min | 12.2% | 30 min | 1 min | 11 min | 0.7 min | 30% | 11.5 min | 12.5 min | 27 min | 12 min
5 | CS(=O)(=O)O.Cc1ncc2n1CCc1c-2[nH]c2ccc(O)cc12 [Example 11, 8-hydroxy-3-methyl-5,6-dihydroimidazo[5,1-a]-β-carboline methane sulfonate] | 29.4% | 40 min | 0 min | 26.5 min | -0.3 min | 38.3% | 15 min | 7 min | 34.5 min | 6.7 min | 20.6% | 6 min | 9.5 min | 18.5 min | 9 min
6 | CS(=O)(=O)O.Cc1ncc2n1CCc1c-2[nH]c2ccccc12 [Example 12, 3-methyl-5,6-dihydroimidazo[5,1-a]-β-carboline methane sulfonate] | 51.7% | 10 min | 39.5 min | 46.5 min | 39 min | 63.9% | 3.5 min | 42 min | 57.5 min | 41.7 min | 98.9% | 1 min | 89 min | 89 min | 88.7 min
7 | COc1ccc2[nH]c3c(c2c1)CCn1c-3cnc1-c1ccccc1 [Example 14] | 63.5% | 7 min | 35.5 min | 62.865 min | 32 min | 68% | 15 min | 34 min | 61.2 min | 31.5 min | 70% | 7 min | 28 min | 63 min | 25.5 min
8 | CCn1c2c(c3ccccc31)CCn1c-2cnc1C.CS(=O)(=O)O [Example 15, 11-ethyl-3-methyl-5,6-dihydroimidazo[5,1-a]-β-carboline methane sulfonate] | 23.9% | 12.5 min | 12 min | 21.5 min | 21 min | 45% | 7 min | 29.5 min | 40.5 min | 29 min | 80% | 1 min | 70 min | 72 min | 69.7 min
9 | CS(=O)(=O)O.Cc1ncc2n1CCc1c-2n(C)c2ccc(Cl)cc12 [Example 16, 8-chloro-3,11-dimethyl-5,6-dihydroimidazo-[5,1-a]-β-carboline methane sulfonate] | 41% | 11.5 min | 15 min | 37 min | 14.7 min | 33.9% | 13.5 min | 20.5 min | 30.5 min | 20 min | 58.3% | 7.5 min | 31 min | 52.5 min | 52 min
10 | CCn1c2c(c3cc(Cl)ccc31)CCn1c-2cnc1C.CS(=O)(=O)O [Example 17, 8-chloro-3-methyl-11-ethyl-5,6-dihydro-imidazo[5,1-a]-β-carboline methane sulfonate] | 41.1% | 12 min | 12 min | 37 min | 11.7 min | 33.3% | 7.5 min | 23.5 min | 30 min | 23 min | 67.2% | 5 min | 43.5 min | 60.5 min | 43 min
